# Literature values as cited in patent US12000829B2, “Selection of patients for combination therapy” (SYNDAX PHARMACEUTICALS, INC., priority 2018, dated 2024).
# Read-outs that look alike come from different tables or passages of the source.
# Legend:
# [1] = tested on: MDSCs and CD14+HLA-DR^Hi monocytes; settings: ER+ breast cancer patients, combined with exemestane
# [2] = tested on: syngeneic mouse tumor models of lung and renal cell carcinoma; settings: two syngeneic mouse tumor models; tumor growth and survival
# [3] = tested on: modestly immunogenic mouse tumors; settings: in combination with immune checkpoint blockade agents
# [4] = tested on: human carcinoma cell lines
# [5] = tested on: squamous or non-squamous NSCLC; settings: NSCLC and metastatic melanoma cohorts
compound,measurement,setting,value
Pembrolizumab: humanized monoclonal IgG4 anti-PD-1 antibody,additional patients with unconfirmed responses,"melanoma; human, in vivo",8 patients
same,biopsies of responding tumors,"melanoma; human, in vivo",dense infiltration by CD8^+ T cells
same,rate of severe toxicities,melanoma; less dose intense cohorts,< 10%
"Nc1ccccc1NC(=O)c1ccc(CNC(=O)OCc2cccnc2)cc1 [Entinostat, N-(2-aminophenyl)-4-[N-(pyridine-3-yl)methoxycarbonylamino-methyl]-benzamide]",effect on CD14+HLA-DR^Hi monocytes in patients,[1],increased immunocompetent CD14+HLA-DR^Hi monocytes
same,effect on MDSCs in patients,[1],reduction of immunosuppressive MDSCs
same,antitumor effect of PD-1 inhibition,[2],enhanced the antitumor effect of PD-1 inhibition
same,effect on tumors,[3],can eradicate modestly immunogenic mouse tumors
avelumab: fully human anti-PD-L1 IgG1 antibody,lysis,[4]; NK cells as effectors,Lysis was increased
same,lysis,[4]; NK cells preactivated with IL-12,increased lysis
same,lysis,[4]; NK-mediated ADCC vs whole PBMCs or dendritic cells isolated from PBMCs,Little or no lysis
same,human carcinoma cell lines in which ADCC was induced,[4]; PBMCs as effectors,8 out of 18
same,cell lines with augmented lysis,[4]; tumor cell lines pretreated with IFN-γ,4 out of 10
MPDL3280A: human anti-PD-L1 mAb with engineered Fc domain minimizing ADCC,responses,[5],durable responses
